The target in experiment [1] is T1, STAT5b Arg566Trp/Met644Lys (Homo sapiens, UniProt P51692, M644K/R566W).
T1 construct: made in house
T1 sequence (P51692 1-787 R566W/M644K): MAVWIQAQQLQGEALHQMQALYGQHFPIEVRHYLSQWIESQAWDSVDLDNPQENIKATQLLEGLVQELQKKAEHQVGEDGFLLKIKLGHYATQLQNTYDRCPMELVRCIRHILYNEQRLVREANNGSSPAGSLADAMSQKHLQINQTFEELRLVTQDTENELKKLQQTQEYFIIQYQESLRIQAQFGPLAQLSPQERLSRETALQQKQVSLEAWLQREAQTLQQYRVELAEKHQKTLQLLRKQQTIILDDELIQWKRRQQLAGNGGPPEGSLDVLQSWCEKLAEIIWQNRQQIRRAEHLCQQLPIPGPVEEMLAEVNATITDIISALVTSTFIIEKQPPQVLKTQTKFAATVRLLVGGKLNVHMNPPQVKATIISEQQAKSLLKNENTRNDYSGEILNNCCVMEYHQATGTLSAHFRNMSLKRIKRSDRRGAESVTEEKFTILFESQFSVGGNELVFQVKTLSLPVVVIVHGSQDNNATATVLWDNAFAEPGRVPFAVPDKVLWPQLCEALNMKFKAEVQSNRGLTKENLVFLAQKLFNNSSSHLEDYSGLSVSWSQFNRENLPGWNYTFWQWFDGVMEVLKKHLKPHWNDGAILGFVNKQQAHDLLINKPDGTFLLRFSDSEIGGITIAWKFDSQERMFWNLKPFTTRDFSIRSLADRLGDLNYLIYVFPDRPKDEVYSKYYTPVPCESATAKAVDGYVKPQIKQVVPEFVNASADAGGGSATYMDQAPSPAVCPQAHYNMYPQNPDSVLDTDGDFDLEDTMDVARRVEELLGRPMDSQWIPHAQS
In words: Fluorescence polarization assay, double mutant STAT5b Arg566Trp/Met644Lys. The class given is binding. Particulars: FP assay. A general note: Fluorescence polarisation rises when a labelled molecule tumbles more slowly, as on binding a larger partner.

Experiment [2] concerns the target T2, STAT5a (Homo sapiens, UniProt P42229).
T2 construct: made in house
T2 sequence (P42229 1-794): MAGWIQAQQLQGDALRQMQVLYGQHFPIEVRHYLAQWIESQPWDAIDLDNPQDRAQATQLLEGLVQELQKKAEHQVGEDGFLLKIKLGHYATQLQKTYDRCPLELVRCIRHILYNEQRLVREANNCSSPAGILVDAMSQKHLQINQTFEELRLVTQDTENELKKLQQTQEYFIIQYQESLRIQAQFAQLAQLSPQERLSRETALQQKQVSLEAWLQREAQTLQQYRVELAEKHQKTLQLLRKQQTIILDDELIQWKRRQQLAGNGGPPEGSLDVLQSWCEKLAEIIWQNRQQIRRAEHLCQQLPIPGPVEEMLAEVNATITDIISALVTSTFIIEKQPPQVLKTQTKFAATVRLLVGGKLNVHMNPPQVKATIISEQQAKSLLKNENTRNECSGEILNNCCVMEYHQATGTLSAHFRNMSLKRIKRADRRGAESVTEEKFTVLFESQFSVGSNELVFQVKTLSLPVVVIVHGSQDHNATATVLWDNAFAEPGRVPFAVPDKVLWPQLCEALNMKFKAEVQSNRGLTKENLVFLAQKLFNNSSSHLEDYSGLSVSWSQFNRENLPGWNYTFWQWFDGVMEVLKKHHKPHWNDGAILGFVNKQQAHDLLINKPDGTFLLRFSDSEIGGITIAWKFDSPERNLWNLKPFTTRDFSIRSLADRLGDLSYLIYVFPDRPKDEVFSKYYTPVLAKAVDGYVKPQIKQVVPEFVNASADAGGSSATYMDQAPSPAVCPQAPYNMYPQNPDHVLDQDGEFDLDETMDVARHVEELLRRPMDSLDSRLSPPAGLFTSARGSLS
As to the kind of experiment: Fluorescence polarization competitive binding assay, STAT5a.

Experiment [3] has as its target T3, STAT5a Trp566Arg/Lys644Met (Homo sapiens, UniProt P42229, K644M/W566R).
T3 construct: made in house
T3 sequence (P42229 1-794 W566R/K644M): T2 sequence (P42229 1-794) with W566R, K644M
As to the kind of experiment: Fluorescence polarization assay, double mutant STAT5a Trp566Arg/Lys644Met. Particulars: FP assay. The class given is binding.

Numbering of substitutions follows the chain as printed.

By IC50 is commonly meant the point on the concentration scale where inhibition reaches its midpoint. The low end stands for greater potency in that assay, the high end for weaker potency in that assay. A word on the Ki: it is the dissociation constant of the complex between target and ligand, obtained from inhibition or displacement. By inhibition is commonly meant the relative decrease from the control value, in per cent. On to `COc1cc(-c2cc(OP(=O)(O)O)cc(-c3cc(OC)c(OC)c(OC)c3)c2)cc(OC)c1OC` [Compound 20], for which the concentration for half-maximal inhibition (IC50) in experiment [1] was 128 ± 8 µM; in experiment [2], 22.2 ± 3.6 µM. Also, the figures for the Ki in experiment [1] and in experiment [2] were 63.1 ± 4.2 µM and 10.9 ± 1.8 µM, respectively. Also, the “selectivity for STAT5a over STAT5b” value in experiment [2] (FP assays, STAT5a vs STAT5b) is listed as “at least 9 fold”. Further, the inhibition at 200 µM in experiment [3] came to 44 ± 4%.

For the origin of these results see article PMC6973011, “Stafia‐1: a STAT5a‐Selective Inhibitor Developed via Docking‐Based Screening of in Silico O‐Phosphorylated Fragments” (Chemistry (Weinheim an Der Bergstrasse, Germany), 2019).
